Where a name gives a salt, the structure may show the parent alone. Read-outs that look alike come from different tables or passages of the source.
How the values were obtained:
[1] = test system: blood glucose; experiment: Hypoglycaemic activity: reduction in area under blood glucose curve after glucose load; assay type: in vivo, Female CFLP mice; settings: Mus musculus, read-out: % Reduction in area under Blood Glucose Curve
Method: Female CFLP mice, weighing approximately 25 g, were fasted for 24 hours prior to the study. The compounds under study were administered orally as an aqueous solution to each of 6 mice. 30 minutes later a blood sample (10 μl) was obtained from the tail for the analysis of blood glucose. Immediately after taking this blood sample, glucose (1 g/Kg body weight) was administered subcutaneously to each mouse. 6 mice were given water as a control. Blood samples were then obtained from each mouse at 30 minute intervals for 120 minutes.
Compounds that produced a significant (P<0.05) reduction of blood glucose, compared with control mice given water, at any time interval, were considered active. The area under the blood glucose curve over the 2 hour period after the administration of the glucose was calculated for each compound and compared with the value for control animals.

[2] = Effect on energy expenditure of mice; assay type: in vivo, Female CFLP mice; settings: Mus musculus
Method: Female CFLP mice, each weighing approximately 24 g were given food and water ad lib before and during the experiment. The compounds were dissolved in water by addition of one mole of hydrochloric acid per mole of compound and these solutions were administered orally to each of 12 mice. A further 12 mice were dosed orally with water. The mice were placed in boxes through which air was drawn and the oxygen content of the air leaving the boxes was measured. The energy expenditure of the mice was calculated for 21 hours after dosing from the volume of air leaving the boxes and its oxygen content, following the principles described by J. B. de V. Weir, J. Physiol. (London), 109, 1-9 (1949).

[3] = po, 3 h, read-out: Mean Energy Expenditure (0-3 h)
[4] = po, 21 h, read-out: Mean Energy Expenditure (0-21 h)
[5] = 2.5 μmol/Kg oral, 2 h after glucose 1 g/Kg s.c., vs control
[6] = 25 μmol/Kg oral, 2 h after glucose 1 g/Kg s.c., vs control
[7] = 22.1 mg/kg po, 0-3 h, read-out: Mean Energy Expenditure (0-3 h)

In the case of `CNC(=O)COc1ccc(CC(C)NCC(OC)c2ccccc2F)cc1` (stereo not drawn) [Example 55, N-[2-(4-Methylaminocarbonylmethoxyphenyl)-1-methylethyl]-2-methoxy-2-(2-fluorophenyl)ethanamine hydrochloride], the inhibition in vivo at 12.5 µmol/kg ([1]; po, 2 h) is reported as 42%, the response vs control in vivo at 20.6 mg/kg [2, 3] is reported as 150% and the response vs control in vivo at 20.6 mg/kg [2, 4] is reported as 121%.

In the case of `COC(=O)Cc1ccc(CC(C)NCC(OC)c2cccc(Cl)c2)cc1` (stereo not drawn) [Example 49, N-[2-(4-Carbomethoxymethylphenyl)-1-methylethyl]-2-methoxy-2-(3-chlorophenyl)ethanamine hydrochloride], the inhibition in vivo at 12.5 µmol/kg ([1]; po, 2 h) is reported as 47%, the response vs control in vivo at 20.6 mg/kg [2, 3] is reported as 131% and the response vs control in vivo at 20.6 mg/kg [2, 4] is reported as 135%.

With `CCOC(CNC(C)Cc1ccc(OCC(=O)NC)cc1)c1cccc(Cl)c1` (stereo not drawn) [Example 16, N-[2-(4-Methylaminocarbonylmethoxyphenyl)-1-methylethyl]-2-ethoxy-2-(3-chlorophenyl)ethanamine hydrochloride] the inhibition in vivo at 1 µmol/kg ([1]; po, 2 h) was 49%, the response vs control in vivo at 22.1 mg/kg [2, 3] was 140% and the response vs control in vivo at 22.1 mg/kg [2, 4] was 126%.

With `CNCCOc1ccc(CC(C)NCC(OC)c2cccc(Cl)c2)cc1` (stereo not drawn) [Example 9, N-[2-(4-Methylaminoethoxy)phenyl)-1-methylethyl]-2-methoxy-2-(3-chlorophenyl)ethanamine dihydrochloride] the inhibition in vivo at 2.5 µmol/kg [1, 5] was 31%, the response vs control in vivo at 22.4 mg/kg [2, 3] was 168% and the response vs control in vivo at 22.4 mg/kg ([2]; 22.4 mg/kg po, 0-21 h, read-out: Mean Energy Expenditure (0-21 h)) was 151%.

`CNCCOc1ccc(CC(C)NCC(OC)c2ccccc2)cc1` (stereo not drawn) [Example 13, N-[2-(4-(2-Methylaminoethoxy)phenyl)-1-methylethyl]-2-methoxy-2-phenylethanamine dihydrochloride] showed an inhibition in vivo at 2.5 µmol/kg ([1]; po, 2 h) of 21%, a response vs control in vivo at 20.8 mg/kg [2, 3] of 145% and a response vs control in vivo at 20.8 mg/kg [2, 4] of 118%.

In the case of `COC(=O)c1ccc(CC(C)NCC(OC)c2cccc(Cl)c2)cc1` (stereo not drawn) [Example 5, N-[2-(4-Carbomethoxyphenyl)-1-methylethyl]-2-methoxy-2-(3-chlorophenyl)ethanamine hydrochloride], the inhibition in vivo at 12.5 µmol/kg ([1]; po, 2 h) is reported as 27%, the response vs control in vivo at 19.9 mg/kg [2, 3] is reported as 128% and the response vs control in vivo at 19.9 mg/kg [2, 4] is reported as 117%.

With `COC(=O)COc1ccc(CC(C)NCC(OC(C)C)c2cccc(Cl)c2)cc1` (stereo not drawn) [Example 26, N-[2-(4-Carbomethoxymethoxyphenyl)-1-methylethyl]-2-isopropoxy-2-(3-chlorophenyl)ethanamine hydrochloride] the inhibition in vivo at 2.5 µmol/kg ([1]; po, 2 h) was 45%, the response vs control in vivo at 22.8 mg/kg [2, 3] was 122% and the response vs control in vivo at 22.8 mg/kg [2, 4] was 103%.

`CNC(=O)COc1ccc(CCC(C)NCC(OC)c2cccc(Cl)c2)cc1` (stereo not drawn) [Example 22, N-[3-(4-Methylaminocarbonylmethoxyphenyl)-1-methylpropyl]-2-methoxy-2-(3-chlorophenyl)ethanamine hydrochloride] showed an inhibition in vivo at 25 µmol/kg [1, 6] of 39%, a response vs control in vivo at 22.1 mg/kg [2, 7] of 126% and a response vs control in vivo at 22.1 mg/kg ([2]; 22.1 mg/kg po, 0-21 h, read-out: Mean Energy Expenditure (0-21 h)) of 107%.

For `COC(=O)COc1ccc(CC(C)NCC(OC)c2cccc(Br)c2)cc1` (stereo not drawn) [Example 12, N-[2-(4-Carbomethoxymethoxyphenyl)-1-methylethyl]-2-methoxy-2-(3-bromophenyl)ethanamine hydrochloride], the inhibition in vivo at 1 µmol/kg ([1]; po, 2 h) was 51%, the response vs control in vivo at 23.6 mg/kg [2, 3] was 130% and the response vs control in vivo at 23.6 mg/kg [2, 4] was 123%.

Compound `COc1cccc(CC(C)NCC(OC)c2cccc(Cl)c2)c1` (stereo not drawn) [Example 39, N-[2-(3-Methoxyphenyl)-1-methylethyl]-2-methoxy-2-(3-chlorophenyl)ethanamine hydrochloride] has an inhibition in vivo at 25 µmol/kg ([1]; po, 2 h) of 15%, a response vs control in vivo at 18.5 mg/kg [2, 3] of 130% and a response vs control in vivo at 18.5 mg/kg [2, 4] of 103%.

`CCOC(CNC(C)Cc1ccc(OCC(=O)OC)cc1)c1cccc(Cl)c1` (stereo not drawn) [Example 3, N-[2-(4-Carbomethoxymethoxyphenyl)-1-methylethyl]-2-ethoxy-2-(3-chlorophenyl)ethanamine hydrochloride] gave an inhibition in vivo at 12.5 µmol/kg ([1]; po, 2 h) of 49%, a response vs control in vivo at 22.1 mg/kg [2, 3] of 135% and a response vs control in vivo at 22.1 mg/kg [2, 4] of 116%.

In the case of `COC(=O)CN(C)c1ccc(CC(C)NCC(OC)c2ccccc2)cc1` (stereo not drawn) [Example 58, N-[2-(4-N'-Methyl-N'-carbomethoxymethylaminophenyl)-1-methylethyl]-2-methoxy-2-phenylethanamine dihydrochloride], the inhibition in vivo at 2.5 µmol/kg [1, 5] is reported as 17%, the response vs control in vivo at 22.1 mg/kg [2, 4] is reported as 108% and the response vs control in vivo at 22.1 mg/kg [2, 7] is reported as 131%.

With `CCOC(CNC(C)Cc1ccc(C(=O)OC)cc1)c1cccc(Cl)c1` (stereo not drawn) [Example 33, N-[2-(4-Carbomethoxyphenyl)-1-methylethyl]-2-ethoxy-2-(3-chlorophenyl)ethanamine hydrochloride hemihydrate] the inhibition in vivo at 25 µmol/kg [1, 6] was 52%, the response vs control in vivo at 21.1 mg/kg [2, 4] was 122% and the response vs control in vivo at 21.1 mg/kg ([2]; 21.1 mg/kg po, 0-3 h, read-out: Mean Energy Expenditure (0-3 h)) was 148%.

`COC(CNC(C)Cc1ccc(N(C)C)cc1)c1cccc(Cl)c1` (stereo not drawn) [Example 41, N-[2-(4-Dimethylaminophenyl)-1-methylethyl]-2-methoxy-2-(3-chlorophenyl)ethanamine dihydrochloride hemihydrate] showed an inhibition in vivo at 12.5 µmol/kg ([1]; po, 2 h) of 45%, a response vs control in vivo at 21.4 mg/kg [2, 3] of 107% and a response vs control in vivo at 21.4 mg/kg [2, 4] of 116%.

`CNC(=O)COc1ccc(CC(C)NCC(OC)c2cccc(C)c2)cc1` (stereo not drawn) [Example 56, N-[2-(4-Methylaminocarbonylmethoxyphenyl)-1-methylethyl]-2-methoxy-2-(3-methylphenyl)ethanamine hydrochloride] showed an inhibition in vivo at 12.5 µmol/kg ([1]; po, 2 h) of 40%, a response vs control in vivo at 20.4 mg/kg [2, 3] of 148% and a response vs control in vivo at 20.4 mg/kg [2, 4] of 108%.

With `COC(CNC(C)Cc1ccc(SC(C)C)cc1)c1cccc(Cl)c1` (stereo not drawn) [Example 40, N-[2-(4-Isopropylthiophenyl)-1-methylethyl]-2-methoxy-2-(3-chlorophenyl)ethanamine hydrochloride] the inhibition in vivo at 12.5 µmol/kg ([1]; po, 2 h) was 31%, the response vs control in vivo at 20.7 mg/kg [2, 3] was 128% and the response vs control in vivo at 20.7 mg/kg [2, 4] was 111%.

`CNC(=O)COc1ccc(CCNCC(OC)c2cccc(Cl)c2)cc1` (stereo not drawn) [Example 51, N-[2-(4-Methylaminocarbonylmethoxyphenyl)ethyl]-2-methoxy-2-(3-chlorophenyl)ethanamine hydrochloride] gave an inhibition in vivo at 12.5 µmol/kg ([1]; 12.5 μmol/Kg oral, 2 h after glucose 1 g/Kg s.c., vs control) of 45%, a response vs control in vivo at 20.7 mg/kg [2, 4] of 108% and a response vs control in vivo at 20.7 mg/kg ([2]; 20.7 mg/kg po, 0-3 h, read-out: Mean Energy Expenditure (0-3 h)) of 128%.

In the case of `COC(=O)COc1cccc(CC(C)NCC(OC)c2cccc(Cl)c2)c1` (stereo not drawn) [Example 8, N-[2-(3-Carbomethoxymethoxyphenyl)-1-methylethyl]-2-methoxy-2-(3-chlorophenyl)ethanamine hydrochloride], the inhibition in vivo at 12.5 µmol/kg ([1]; po, 2 h) is reported as 49%, the response vs control in vivo at 21.4 mg/kg [2, 3] is reported as 142% and the response vs control in vivo at 21.4 mg/kg [2, 4] is reported as 111%.

`COC(CNC(C)Cc1ccc(OCC(=O)N(C)C)cc1)c1cccc(Cl)c1` (stereo not drawn) [Example 19, N-[2-(4-Dimethylaminocarbonylmethoxyphenyl)-1-methylethyl]-2-methoxy-2-(3-chlorophenyl)ethanamine hydrochloride] showed an inhibition in vivo at 1 µmol/kg ([1]; po, 2 h) of 56%, a response vs control in vivo at 22.1 mg/kg [2, 3] of 143% and a response vs control in vivo at 22.1 mg/kg [2, 4] of 139%.

`CCCCOC(CNC(C)Cc1ccc(OCC(=O)OC)cc1)c1cccc(Cl)c1` (stereo not drawn) [Example 42, N-[2-(4-Carbomethoxymethoxyphenyl)-1-methylethyl]-2-^n butoxy-2-(3-chlorophenyl)ethanamine hydrochloride] gave an inhibition in vivo at 5 µmol/kg ([1]; 5 μmol/Kg oral, 2 h after glucose 1 g/Kg s.c., vs control) of 37%, a response vs control in vivo at 23.5 mg/kg [2, 4] of 114% and a response vs control in vivo at 23.5 mg/kg ([2]; 23.5 mg/kg po, 0-3 h, read-out: Mean Energy Expenditure (0-3 h)) of 158%.

Compound `CNC(=O)COc1ccc(CC(C)NCC(OC)c2cccc(Cl)c2)cc1` (stereo not drawn) [Example 4, N-[2-(4-Methylaminocarbonylmethoxyphenyl)-1-methylethyl]-2-methoxy-2-(3-chlorophenyl)ethanamine hydrochloride] has an inhibition in vivo at 1 µmol/kg ([1]; po, 2 h) of 54%, a response vs control in vivo at 8.5 mg/kg [2, 3] of 152% and a response vs control in vivo at 8.5 mg/kg [2, 4] of 120%.

In the case of `COC(CNC(C)Cc1ccc(OCCO)cc1)c1ccccc1` (stereo not drawn) [Example 21, N-[2-(4-(2-Hydroxyethoxy)phenyl)-1-methylethyl]-2-methoxy-2-phenylethanamine hydrochloride hemihydrate], the inhibition in vivo at 1 µmol/kg ([1]; 1.0 μmol/Kg oral, 2 h after glucose 1 g/Kg s.c., vs control) is reported as 48%, the response vs control in vivo at 18.8 mg/kg [2, 4] is reported as 120% and the response vs control in vivo at 18.8 mg/kg ([2]; 18.8 mg/kg po, 0-3 h, read-out: Mean Energy Expenditure (0-3 h)) is reported as 147%.
